Reference: the Deep4Chem optical property database

Assay: solvent given as SMILES

Compound CCCCCCN1C(=O)c2cccc3c(-c4ccc(OC)s4)ccc(c23)C1=O has an absorption maximum (in ClC(Cl)Cl) of 407 nm.

Work on Clc1nc(Nc2ccccc2)nc(Nc2ccc3c4cccc5cccc(c6cccc2c63)c54)n1 yielded an absorption maximum (in C1COCCO1) of 444 nm, an absorption maximum (in CC#N) of 442 nm and an absorption maximum (in CCCCOCCCC) of 443 nm. The absorption maximum (in CCOC(C)=O) was 442 nm.

CC(C)c1cccc(C(C)C)c1-n1c(=O)c2cc3nc(-c4ccccc4)c4cc5c(=O)n(-c6c(C(C)C)cccc6C(C)C)c(=O)c6cc7nc(-c8ccccc8)c8cc(c1=O)c2c1c3c4c(c65)c7c81 showed an absorption maximum (in ClC(Cl)Cl) of 488 nm.

In the case of CCC1=C(C)C2=Cc3c4ccccc4c4n3[B-](c3ccccc3)(Oc3ccccc3-4)[N+]2=C1C (centres undefined), the absorption maximum (in CC#N) is reported as 621 nm, the absorption maximum (in CCCCCC) is reported as 625 nm and the absorption maximum (in Cc1ccccc1) is reported as 629 nm. The absorption maximum (in ClCCl) was 627 nm.

CC1=CC(/C=C/c2ccc(OCCCN=[N+]=[N-])cc2)=[N+]2C1=C(c1ccc(N3CCCCC3)cc1)c1c(C)cc(C)n1[B-]2(F)F showed an absorption maximum (in CO) of 570 nm.

Work on F[B-]1(F)n2c(c(-c3cccs3)c3c2-c2ccccc2CC3)C=C2C(c3cccs3)=C3CCc4ccccc4C3=[N+]21 yielded an absorption maximum (in CC#N) of 636 nm.

CC1(C)C(/C=C/C2=C(Oc3ccc(CCN=C=S)cc3I)C(=C/C=C3/N(CCCS(=O)(=O)[O-])c4ccccc4C3(C)C)/CCC2)=[N+](CCCS(=O)(=O)[O-])c2ccccc21 showed an absorption maximum (in CO) of 766 nm.

For Fc1c(F)c(-n2c3ccccc3c3ccccc32)c(F)c(F)c1-c1nnc(-c2ccccc2)o1, the absorption maximum (in Cc1ccccc1) was 344 nm.

Work on COc1ccc(-c2nc(-c3ccc(OC)cc3)c(-c3ccc(OC)cc3)[nH]2)cc1 yielded an absorption maximum (in CO) of 295 nm.

For CC1=CC(C)=[N+]2C1=C(c1ccc(O)cc1)c1c(C)cc(/C=C/C=C3/N(C)c4ccccc4C3(C)C)n1[B-]2(F)F, the absorption maximum (in O) was 650 nm.

C(=C(c1ccccc1)c1ccccc1)c1ccc(-c2ccc(-c3nc4c5ccccc5c5ccccc5c4n3-c3cccc(-c4ccc(C=C(c5ccccc5)c5ccccc5)cc4)c3)cc2)cc1 gave an absorption maximum (in C1CCOC1) of 340 nm.

Compound c1cc2c(C3SCCCS3)c3ccc(=[N+]4CCCCC4)cc-3oc2cc1N1CCCCC1 has an absorption maximum (in CO) of 583.65 nm.

With C[C@]12SC(=O)C=C1c1nc(-c3ccc(Cl)cc3)[nH]c1C1=CC(=O)S[C@@]12C the absorption maximum (in CC#N) was 451 nm.

CC1=[N+]2C(=C(Oc3ccc4c(c3)CC[C@@H]3[C@@H]4CC[C@]4(C)C(=O)CC[C@@H]34)c3ccc(C)n3[B-]2(F)F)C=C1c1cc2n(c1)[B-](F)(F)[N+]1=CC=CC1=C2c1c(C)cc(C)cc1C gave an absorption maximum (in C1CCCCC1) of 579.5 nm and an absorption maximum (in CCOC(C)=O) of 574 nm.

In the case of COc1ccc2c3c(c4ccc(C(C)(C)C)cc4c2c1)=C(c1cc(OC)c(OC)c(OC)c1)C1=Nc2c(-c4cc(OC)c(OC)c(OC)c4)c4c5ccc(C(C)(C)C)cc5c5cc(OC)ccc5c4n2[B-](F)(F)[N+]=31, the absorption maximum (in Cc1ccccc1) is reported as 797 nm.

CCCCC(CC)COc1cc(OCC(CC)CCCC)c2c#cc3ccc4sc5ccc(c#cc6cc(c#cc7ccc8sc9ccc(c#cc1c2)cc9c8c7)c(C(CCCC)OCCC)cc6C(CCCC)OCCC)cc5c4c3 (centres undefined) showed an absorption maximum (in ClCCl) of 333 nm.

Compound c1cc2c(N3CCCCC3)c3ccc(=[N+]4CCCCC4)cc-3oc2cc1N1CCCCC1 has an absorption maximum (in ClCCl) of 491 nm.

Oc1c(-c2cccs2)cccc1-c1nc2ccccc2s1 showed an absorption maximum (in ClCCl) of 356 nm and an absorption maximum (in O) of 346 nm.

Work on O=S(=O)(c1ccc2c(c1)c1ccccc1n2-c1ccccc1)c1ccc2c(c1)c1ccccc1n2-c1ccccc1 yielded an absorption maximum (in ClCCl) of 290 nm.

Nc1ccc2nc3c4ccccc4c(=[NH2+])cc-3oc2c1 gave an absorption maximum (in CCO) of 600 nm.

CC1(C)OB(c2cc3ccc4cc(B5OC(C)(C)C(C)(C)O5)cc5ccc(c2)c3c45)OC1(C)C gave an absorption maximum (in Cc1ccccc1) of 398 nm.

In the case of Cc1cccc(-c2c3ccccc3cc3ccccc23)n1, the absorption maximum (in ClCCl) is reported as 385 nm.

For CCn1c(-c2ccc(-c3ccc4c(c3)C(c3ccccc3)(c3ccccc3)c3ccccc3-4)cc2)c(-c2ccc3ccccc3c2)c(-c2ccc3ccccc3c2)c1-c1ccc(-c2ccc3c(c2)C(c2ccccc2)(c2ccccc2)c2ccccc2-3)cc1, the absorption maximum (in CCOC(C)=O) was 325 nm.

For CCOC(=O)c1c2c3c(ccc(OC)c3c3cc4ccccc4cc13)N(C)C2=O, the absorption maximum (in CC#N) was 406 nm.

Work on Cc1ccc(-n2c(-c3cccc4cc[nH]c34)nc3c4ccccc4c4ccccc4c32)cc1 yielded an absorption maximum (in Cc1ccccc1) of 354 nm.

For F[B-]1(F)n2c(c3cccc4cccc2c43)=Nc2ccc3ccccc3[n+]21, the absorption maximum (in C1CCOC1) was 486 nm, the absorption maximum (in CC#N) was 481 nm and the absorption maximum (in CCCCCC) was 490 nm. The absorption maximum (in Cc1ccccc1) was 490 nm and the absorption maximum (in ClCCl) was 455 nm.

In the case of Cc1c2c(c(C)c3ccccc13)C1=C2C=CC2Nc3ccccc3NC12 (centres undefined), the absorption maximum (in ClC(Cl)Cl) is reported as 437 nm.

Work on O=S(=O)([O-])c1ccc2c(O)cc(S(=O)(=O)[O-])cc2c1 yielded an absorption maximum (in O) of 295 nm.

CC(C)(C)c1ccc2c(c1)c1cc(C(C)(C)C)ccc1n2-c1ccc(C#Cc2ccc3c4ccc(C#Cc5ccc(/C=C(/C#N)C(=O)O)cc5)cc4n(-c4ccc(C(F)(F)F)cc4)c3c2)cc1 showed an absorption maximum (in ClCCl) of 386 nm.

c1ccc(-c2nc(-c3ccccc3)c(-c3ccccc3)o2)cc1 showed an absorption maximum (in Cc1ccccc1) of 311 nm.

Compound CCC1=C(C)C2=C(c3c(C)cc(C)nc3-c3cccs3)c3c(C)c(CC)c(C)n3[B-](F)(F)[N+]2=C1C has an absorption maximum (in C1CCCCC1) of 532 nm, an absorption maximum (in C1CCOC1) of 532 nm and an absorption maximum (in C1COCCO1) of 533 nm. It also gave an absorption maximum (in CC#N) of 530 nm, an absorption maximum (in CCCCCC) of 531 nm and an absorption maximum (in CCO) of 531 nm. It also gave an absorption maximum (in CCOC(C)=O) of 531 nm, an absorption maximum (in CCOCC) of 530 nm and an absorption maximum (in CN(C)C=O) of 532 nm. It also gave an absorption maximum (in CS(C)=O) of 534 nm, an absorption maximum (in Cc1ccccc1) of 533 nm and an absorption maximum (in ClC(Cl)(Cl)Cl) of 534 nm. For the same compound, the absorption maximum (in ClC(Cl)Cl) was 535 nm.

With COc1ccc(C2=C/C(=C\c3ccccc3)C(=O)O2)cc1OC the absorption maximum (in C1COCCO1) was 406 nm.

For CCC1(CC)c2cc(B(c3c(C)cc(C)cc3C)c3c(C)cc(C)cc3C)ccc2-c2ccc(N(c3ccccc3)c3ccccc3)cc21, the absorption maximum (in C1CCOC1) was 400 nm, the absorption maximum (in CC#N) was 394 nm and the absorption maximum (in CC(C)=O) was 398 nm. For the same compound, the absorption maximum (in CCCCCC) was 401 nm, the absorption maximum (in CN(C)C=O) was 396 nm and the absorption maximum (in Cc1ccccc1) was 403 nm. For the same compound, the absorption maximum (in ClC(Cl)Cl) was 402 nm.

With COc1cccc2cc(C#N)c(=N)oc12 the absorption maximum (in ClCCl) was 364 nm.

CCCCn1c2ccccc2c2c1c1c3ccccc3n(CCCC)c1c1c3ccccc3n(CCCC)c21 showed an absorption maximum (in C1CCOC1) of 316 nm.

For COC(=O)/C(C#N)=c1\s/c(=c2/s/c(=C(/C#N)C(=O)OC)c3cc(-c4ccc(OC)cc4)sc23)c2sc(-c3ccc(OC)cc3)cc12, the absorption maximum (in Cc1ccccc1) was 628 nm.

Compound CC1=CC(C)=[N+]2C1=C(C)c1cccn1[B-]2(F)F has an absorption maximum (in CCCCCC) of 492 nm, an absorption maximum (in CO) of 486 nm and an absorption maximum (in ClCCl) of 488 nm.

Compound COc1ccc(C2=[N+]3C(=Nc4c(C)cc(-c5ccc(OC)cc5)n4[B-]3(F)F)C(C)=C2)cc1 has an absorption maximum (in CS(C)=O) of 656 nm.

FC(F)(F)c1ccc(-c2ccc(-c3cc(-c4ccccn4)nc(-c4ccccn4)c3)cc2)cc1 showed an absorption maximum (in ClCCl) of 289 nm.

CN(C)c1ccc(C#Cc2ccc(C#Cc3ccc(C#Cc4ccccc4C#N)cc3C#N)cc2C#N)cc1 gave an absorption maximum (in C1CCOC1) of 422 nm, an absorption maximum (in CC#N) of 413 nm and an absorption maximum (in CN(C)C=O) of 426 nm. The absorption maximum (in ClC(Cl)Cl) was 425 nm and the absorption maximum (in c1ccccc1) was 426 nm.

CCCCN1C(=O)c2cc(Br)c3c4c(Br)cc5c6c(cc(Br)c(c7c(Br)cc(c2c37)C1=O)c64)C(=O)N(CCCC)C5=O showed an absorption maximum (in ClC(Cl)Cl) of 532 nm.

Work on c1cc(-n2c3ccccc3c3ccccc32)c(-c2nc3ccccn3n2)c(-n2c3ccccc3c3ccccc32)c1 yielded an absorption maximum (in Cc1ccccc1) of 338 nm.

With Cc1cc(C)c(C)c(-c2cc(-c3c(C)c(C)cc(C)c3C)c3ccc4c(-c5c(C)c(C)cc(C)c5C)cc(-c5c(C)c(C)cc(C)c5C)c5ccc2c3c54)c1C the absorption maximum (in ClCCl) was 364 nm.

Cc1ccccc1-c1c2ccc(=[N+]3CCOCC3)cc-2oc2cc(N3CCOCC3)ccc12 showed an absorption maximum (in CCO) of 556 nm and an absorption maximum (in ClCCl) of 554 nm.

For COc1ccc(-n2cccc2)cc1, the absorption maximum (in CC#N) was 252 nm and the absorption maximum (in CCCCCC) was 252 nm.

With F[B-]1(F)n2c(-c3ccccc3)cc(-c3ccccc3)c2N=C2C(c3ccccc3)=CC(c3ccccc3)=[N+]21 the absorption maximum (in CC#N) was 643 nm and the absorption maximum (in ClC(Cl)Cl) was 650 nm.

For O=c1oc2ccccc2cc1-c1nc2ccccc2o1, the absorption maximum (in C1CCOC1) was 354 nm, the absorption maximum (in C1COCCO1) was 357 nm and the absorption maximum (in CC1CCCCC1) was 356 nm. The absorption maximum (in CC#N) was 352 nm, the absorption maximum (in CC(C)=O) was 352 nm and the absorption maximum (in CC(C)CO) was 353 nm. It also gave an absorption maximum (in CC(C)O) of 354 nm, an absorption maximum (in CCOC(C)=O) of 352 nm and an absorption maximum (in CN(C)C=O) of 352 nm. The absorption maximum (in CO) was 352 nm, the absorption maximum (in CS(C)=O) was 354 nm and the absorption maximum (in Cc1ccccc1) was 360 nm. For the same compound, the absorption maximum (in ClC(Cl)(Cl)Cl) was 360 nm, the absorption maximum (in ClC(Cl)Cl) was 356 nm and the absorption maximum (in OCCO) was 354 nm.

For CC1=C2C3=C(CCc4ccccc43)C(C)=[N+]2[B-](F)(F)n2c(C)c3c(c21)-c1ccccc1CC3, the absorption maximum (in CC#N) was 559 nm.

COc1ccc(-c2cc3c(s2)=CC2=C(C(F)(F)F)c4cc5sc(-c6ccc(OC)cc6)cc5n4[B-](F)(F)[N+]=32)cc1 showed an absorption maximum (in C1CCOC1) of 730 nm and an absorption maximum (in ClC(Cl)Cl) of 731 nm.

N#Cc1cc(-n2c3ccccc3c3ccccc32)c(-n2c3ccccc3c3ccccc32)cc1C#N showed an absorption maximum (in C1CCOC1) of 368 nm, an absorption maximum (in CC#N) of 367 nm and an absorption maximum (in Cc1ccccc1) of 375 nm. For the same compound, the absorption maximum (in ClCCl) was 364 nm.

CCOC(=O)c1cc(C(=O)OCC)c2cccc(O)c2n1 gave an absorption maximum (in CCO) of 369 nm.

Work on N#Cc1c(-n2c3ccccc3c3ccccc32)nc(-n2c3ccccc3c3ccccc32)c(C#N)c1-c1ccccc1 yielded an absorption maximum (in c1cc(-c2cccc(-n3c4ccccc4c4ccccc43)c2)cc(-n2c3ccccc3c3ccccc32)c1) of 374 nm.

In the case of COC(=O)c1cc(=O)n(Cc2ccccc2)c2cc(-c3ccc(N(C)C)cc3)sc12, the absorption maximum (in CC#N) is reported as 432 nm and the absorption maximum (in ClCCl) is reported as 436 nm.

For CN(C)c1ccc(C2=Cc3cc(Cl)nc[n+]3[B-](F)(F)O2)cc1, the absorption maximum (in C1CCOC1) was 451 nm, the absorption maximum (in CC#N) was 452 nm and the absorption maximum (in CCCCCC) was 444 nm. It also gave an absorption maximum (in Cc1ccccc1) of 453 nm, an absorption maximum (in ClC(Cl)Cl) of 460 nm and an absorption maximum (in ClCCl) of 459 nm.

Compound F[Si-](F)(c1ccccc1)(c1c2ccccc2cc2ccccc12)c1c2ccccc2cc2ccccc12 has an absorption maximum (in C1CCOC1) of 391 nm.

In the case of Cc1cc(=O)oc2cc(-c3cn(Cc4ccccc4)nn3)ccc12, the absorption maximum (in CCO) is reported as 329 nm.
